Experimental data reported in patent publication US7041701B2, “Triterpenoid derivatives” (Univerzita Palackeho V Olomouci, priority 2000, dated 2006).
Like-named read-outs stand apart in the source and are kept apart here.

Legend:
[1] = system: K562-GEM human promyelocytic leukemia, gemcitabin resistant; assay: MTT cytotoxicity assay, K562-GEM; format: cell-based; details: 72 hours, read-out: TCS50
Excerpt: (§1) One of the parameters used as the basis for colorimetric assays is the metabolic activity of viable cells. For example, a microtiter assay which uses the tetrazolium salt MTT is now widely used to quantitate cell proliferation and cytotoxicity [Hajdúch M, Mihál V, Minarík J, Fáber E, Safárová M, Weigl E, Antálek P.: Cytotechnology, 1996, 19, 243–245]. For instance, this assay is used in drug screening programs and in chemosensitivity testing. Because tetrazolium salts are cleaved only by metabolically active cells, these assays exclusively detect viable cells. In the case of the MTT assay, yellow soluble tetrazolium salt is reduced to a coloured water-insoluble formazan salt. After it is solubilized, the formazan formed can easily and rapidly be quantified in a conventional ELISA plate reader at 570 nm (maximum absorbancy). The quantity of reduced formazan corresponds to the number of vital cells in the culture. […]
(§2) The cell suspensions that were prepared and diluted according to the particular cell type and the expected target cell density (2,500–30,000 cells per well based on cell growth characteristics) were added by pipette (80 μl) into 96/well microtiter plates. […] Usually, test compounds were evaluated at six 4-fold dilutions. […] The tumour cell survival (TCS) was calculated using the following equitation: TCS=(ODdrug exposed well/mean ODcontrol wells)×100%. […]

[2] = system: K562-FLUD human promyelocytic leukemia, fludarabin resistant; assay: MTT cytotoxicity assay, K562-FLUD; format: cell-based; details: 72 hours, read-out: TCS50
Excerpt: as §1, §2

[3] = system: CEM-VCR 3/D5 human T-lymphoblastic leukemia, vincristin resistant; assay: MTT cytotoxicity assay, CEM-VCR 3/D5; format: cell-based; details: 72 hours, read-out: TCS50
Excerpt: as §1, §2

[4] = system: CEM human T-lymphoblastic leukemia; assay: MTT cytotoxicity screening assay, CEM; format: cell-based
Excerpt: One of the parameters used as the basis for colorimetric assays is the metabolic activity of viable cells. For example, a microtiter assay which uses the tetrazolium salt MTT is now widely used to quantitate cell proliferation and cytotoxicity [Hajdúch M, Mihál V, Minarík J, Fáber E, Safárová M, Weigl E, Antálek P.: Cytotechnology, 1996, 19, 243–245]. For instance, this assay is used in drug screening programs and in chemosensitivity testing. Because tetrazolium salts are cleaved only by metabolically active cells, these assays exclusively detect viable cells. In the case of the MTT assay, yellow soluble tetrazolium salt is reduced to a coloured water-insoluble formazan salt. After it is solubilized, the formazan formed can easily and rapidly be quantified in a conventional ELISA plate reader at 570 nm (maximum absorbancy). The quantity of reduced formazan corresponds to the number of vital cells in the culture.
Human T-lymphoblastic leukaemia cell line CEM was used for routine screening of these compounds. […] The cells were maintained in Nunc/Corning 80 cm^2 plastic tissue culture flasks and cultured in cell culture medium (DMEM with 5 g/l glucose, 2 mM glutamine, 100 U/ml penicillin, 100 μg/ml streptomycin, 10% foetal calf serum and sodium bicarbonate). Individual compounds were dissolved in 10% diiethylsulfoxide/saline, pH 8.0.
The cell suspensions that were prepared and diluted according to the particular cell type and the expected target cell density (2,500–30,000 cells per well based on cell growth characteristics) were added by pipette (80 μl) into 96/well microtiter plates. Inoculates were allowed a pre-incubation period of 24 hours at 37° C. and 5% CO2 for stabilisation. Four-fold dilutions of the intended test concentration were added at time zero in 20 μl aliquots to the microtiter plate wells. Usually, test compounds were evaluated at six 4-fold dilutions. In routine testing, the highest well concentration was 250 μM, but it may differ, depending on the agent. All drug concentrations were examined in duplicate. Incubations of cells with the test compounds lasted for 72 hours at 37° C., in 5% CO2 atmosphere and 100% humidity. At the end of the incubation period, the cells were assayed by using the MTT assay. […] After this incubation period, formazan was solubilized by the addition of 100 μl/well of 10% SDS in water (pH=5.5) followed by further incubation at 37° C. overnight The optical density (OD) was measured at 540 nm with the Labsystem iEMS Reader MF(UK). The tumour cell survival (TCS) was calculated using the following equitation: TCS=(ODdrug exposed well/mean ODcontrol wells)×100%. The TCS50 value, the drug concentration lethal to 50% of the tumour cells, was calculated from the obtained dose response curves. […]

[5] = system: K562 human promyelocytic leukemia; assay: MTT cytotoxicity assay, K562; format: cell-based; details: 72 hours, read-out: TCS50
Excerpt: as §1, §2

[6] = system: NIH3T3 mouse immortalised fibroblasts; assay: MTT cytotoxicity assay, NIH3T3; format: cell-based; details: 72 hours, read-out: TCS50
Excerpt: as §1, §2

[7] = system: DU145 human prostate cancer, androgen independent, Rb−/−; assay: MTT cytotoxicity assay, DU145; format: cell-based; details: 72 hours, read-out: TCS50
Excerpt: as §1, §2

B16 mouse melanoma = assay: MTT cytotoxicity assay, B16; format: cell-based; details: 72 hours, read-out: TCS50
Excerpt: as §1, §2

[8] = system: SW620 human colon cancer, metastasis; assay: MTT cytotoxicity assay, SW620; format: cell-based; details: 72 hours, read-out: TCS50
Excerpt: as §1, §2

[9] = system: A549 human lung adenocarcinoma; assay: MTT cytotoxicity assay, A549; format: cell-based; details: 72 hours, read-out: TCS50
Excerpt: as §1, §2

[10] = system: HepG2 human hepatocellular carcinoma; assay: MTT cytotoxicity assay, HepG2; format: cell-based; details: 72 hours, read-out: TCS50
Excerpt: as §1, §2

CEM cells = assay: Flow cytometry of total DNA content (cell cycle, apoptosis) in CEM cells; format: cell-based, human
Method: Hypophosphorylation of Rb protein is accompanied with cell cycle block on the G1/S transition. To investigate whether incubation of tumour cells with betulinines will result in cell cycle block and/or apoptosis, a flow-cytometry study was performed with measurement of total DNA content in CEM cells treated with/without I.3. Taxol (paclitaxel) was used as a positive control, since this drug is known to result in the cumulation of cells in the G2 phase.
Briefly, CEM cells were cultured in Dulbeco's modified essential medium with 4.5 g dextrose/l, 10% of foetal calf serum, 2 mM glutamine, 100 U/ml penicillin and 100 μg/ml streptomycin with/without the indicated concentrations of paclitaxel or I.3 (FIG. 4A). At selected time points, cells were harvested, washed in ice cold Hank's balanced salt solution (HBSS) and fixed in 70% ethanol at −20° C. overnight. The next day, ethanol was removed by centrifugation, cells were washed twice in HBSS and a cellular pellet (10^6 cells) was reconstituted in staining solution (propidium iodide 60 μg/ml, DNA-se free RNA-se 175 U/ml in HBSS) for 15 minutes at 37° C. The DNA content of individual cells was analyzed on flow cytometer Excalibur (Becton and Dickinson) at excitation wavelength of 488 nm.

[11] = system: CEM-DNR 1/C2 human T-lymphoblastic leukemia, daunorubicin resistant; assay: MTT cytotoxicity assay, CEM-DNR 1/C2; format: cell-based; details: 72 hours, read-out: TCS50
Excerpt: as §1, §2

[12] = system: B16F mouse melanoma, metastatic; assay: MTT cytotoxicity assay, B16F; format: cell-based; details: 72 hours, read-out: TCS50
Excerpt: as §1, §2

HT-29 human colon cancer = assay: MTT cytotoxicity assay, HT-29; format: cell-based; details: 72 hours, read-out: TCS50
Excerpt: as §1, §2

human normal lymphocytes = assay: MTT cytotoxicity assay, normal lymphocytes; format: cell-based; details: 72 hours, read-out: TCS50
Excerpt: as §1, §2

[13] = system: MDA-MB-238 human breast cancer, estrogen independent, p53mut/mut; assay: MTT cytotoxicity assay, MDA-MB-238; format: cell-based; details: 72 hours, read-out: TCS50
Excerpt: as §1, §2

[14] = system: OVCAR-3 human ovarian cancer; assay: MTT cytotoxicity assay, OVCAR-3; format: cell-based; details: 72 hours, read-out: TCS50
Excerpt: as §1, §2

[15] = system: K562-CdA human promyelocytic leukemia, cladrubin resistant; assay: MTT cytotoxicity assay, K562-CdA; format: cell-based; details: 72 hours, read-out: TCS50
Excerpt: as §1, §2

[16] = system: K562-ARA-C human promyelocytic leukemia, cytarabin resistant; assay: MTT cytotoxicity assay, K562-ARA-C; format: cell-based; details: 72 hours, read-out: TCS50
Excerpt: as §1, §2

[17] = system: CEM-DNR bulk human T-lymphoblastic leukemia, daunorubicin resistant; assay: MTT cytotoxicity assay, CEM-DNR bulk; format: cell-based; details: 72 hours, read-out: TCS50
Excerpt: as §1, §2

CC(=O)OC[C@@]1(C(=O)O)CC[C@]2(C)[C@H](CC[C@@H]3[C@@]4(C)CC[C@H](OC(C)=O)C(C)(C)[C@@H]4CC[C@]32C)C1=O [I.3, 3β,28-diacetoxy-18-oxo-19,20,21,29,30-pentanorlupan-22-oic acid]
IC50 [1]: 0.9 µM
IC50 [2]: 0.4 µM
IC50 [3]: 2.9 µM
IC50 ([4]; CEM cells, as stated in the histone acetylation study, read-out: IC50): 2 µM
IC50 ([4]; CEM, MTT assay, 72 hours, read-out: TCS50): 1 µM
IC50 [5]: 0.2 µM
IC50 [6]: 7.2 µM
IC50 [7]: 0.8 µM
IC50 (B16 mouse melanoma): 2.1 µM
IC50 [8]: 1.2 µM
IC50 [9]: 1 µM
IC50 [10]: 1.7 µM
cell cycle distribution (CEM cells; propidium iodide flow cytometry (FIG. 4A)): induces cumulation of cells in G0/G1 phases
induction of apoptosis (sub-G1 cells) (CEM cells; propidium iodide flow cytometry (FIG. 4B)): rapid apoptosis
IC50 [11]: 0.6 µM
IC50 [12]: 4.7 µM
IC50 (HT-29 human colon cancer): 1.6 µM
IC50 (human normal lymphocytes): 13 µM
IC50 [13]: 1.4 µM
IC50 [14]: 1 µM
IC50 [15]: 0.3 µM
IC50 [16]: 0.6 µM
IC50 [17]: 1.1 µM
